A short description of data set [1]: Plasma concentration after single IV or PO dose in mice (LC/MS/MS). The conditions noted are these: 30 min after dosing. Also noted: Plasma concentration PO @ t = 30 min: dose or concentration left out as unconfirmed. The format is in vivo. The protocol: Compounds were formulated at 0.4 and 1 mg/ml in a vehicle containing Poly-Ethylene Glycol 400 (PEG400; Cat. No. #91893, Sigma Aldrich) as dosing solutions for intravenous and oral administration, respectively. Male C57BL6 mice, approximately 8-10 weeks old (22-25 grams), were obtained from the vivarium Fundación Ciencia & Vida Chile (Santiago, Chile) and maintained in a temperature-controlled room with 12/12 hr light/dark schedule with food and water ad libitum. Animals were acclimated for a minimum period of 4 days upon arrival at the testing facility.
At the day of study, mice were weighed, identified by marking the tail with numbers using a non-toxic permanent marker and designated into the experimental groups (n=3 per group). Each mouse of IV dosing groups received the systemic administration of 2 mg/kg dosing solution via caudal vein. […] No.: FTP-2038; Instech Salomon Inc.).
Blood samples were harvested by terminal cardiac puncture at 30 min after dosing. Non-dosed mice were used to collect samples of zero time points. Whole blood was collected into microtainer tubes with (K2) EDTA (Cat. No.: 365974, Becton Dickinson & Co.). Blood samples were centrifuged immediately at 9,000 g at 4° C. for 5 min and then plasmas were separated. Plasma samples were placed into individually labeled cryovials and stored in a −80° C. freezer until LC/MS/MS bioanalysis.
The bioanalysis of plasma samples to determine concentrations of exemplary compounds of the invention was conducted with a QTRAP 4500 triple quadrupole mass spectrometer (Applied Biosystems SCIEX) in the positive ion mode and interfaced with an ekspert ultraLC 100-XL UPLC System (eksigent). Calibration standards (0.01 to 100 μM) and QCs (0.2, 2.0 and 20 μM) were prepared from naïve mouse plasma in parallel with mouse plasma study samples (60 μl) by precipitation with three volumes of ice cold internal standard solution (acetonitrile containing 20 μM of theophylline). The precipitated samples were centrifuged at 6,100 g for 30 min at 4° C. Following centrifugation, an aliquot of each supernatant was transferred into a clean sample vial and diluted with two volumes of aqueous mobile phase (0.2% formic acid in water). Samples were injected onto a reverse phase analytical column (YMC Triart C18; 2.0×50 mm; 1.9 μm; YMC CO) and eluted with a gradient of 0.1 or 0.2% formic acid in Acetonitrile. Test compound and internal standard were monitored by a multiple reaction monitoring (MRM) experiment using an Analyst software (v 1.6.2, Applied Biosystems SCIEX). Quantitation was conducted using a MultiQuant software (v 2.1, Applied Biosystems SCIEX) and the resulting calibration curve was fitted with a linear or quadratic regression and 1/× weighting. The lower limit of quantitation were between 0.01-0.03 μM.
IV and PO PK parameters were calculated from the concentration-time data using Phoenix WinNonlin software (v 6.4, Certara, Princeton, N.J.) by noncompartmental analysis in the sparse sampling mode.

The target in data set [2] is T1, native ARG1 enzyme in lysates of RBC (Homo sapiens, UniProt P05089).
T1 construct: native ARG1 enzyme in lysates of RBC; from tissue; host or cells: human red blood cell lysates from healthy donors
T1 sequence (P05089 1-322): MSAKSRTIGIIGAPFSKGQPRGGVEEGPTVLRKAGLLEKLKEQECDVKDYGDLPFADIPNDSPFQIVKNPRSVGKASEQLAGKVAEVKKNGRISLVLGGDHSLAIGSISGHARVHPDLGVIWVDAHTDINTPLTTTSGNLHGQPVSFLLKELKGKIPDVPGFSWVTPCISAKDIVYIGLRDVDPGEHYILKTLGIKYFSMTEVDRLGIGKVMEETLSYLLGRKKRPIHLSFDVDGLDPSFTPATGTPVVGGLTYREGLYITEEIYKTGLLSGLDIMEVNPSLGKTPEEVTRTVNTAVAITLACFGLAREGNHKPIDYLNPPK
Description: Arginase enzymatic assay in RBC lysates from healthy donors. As to conditions: human red blood cell lysates; read-out: IC50 Inh RBC. Type of data set: biochemical. From the text: Arginase catalyzes the hydrolysis of L-arginine into L-ornithine and urea. Urea amount produced by this reaction can be detected using a colorimetric assay and used as an indirect measurement of arginase activity. An adapted protocol from (Baggio, R., et al., J Pharmacol Exp Ther, 1999. 290(3): p. 1409-16) was used for the testing the ability of exemplary compounds of the invention to inhibit arginase enzymes from a variety of sources including recombinant human ARG1 and 2, lysates of human red blood cells (RBC) and intact murine macrophages, as described below.
Compounds of the invention were prepared from powder as 10 mM stock solutions in DMSO and stored in presence of N2 neutral atmosphere at −80° C. For IC50 determination and just before the assay, exemplary compounds were successively diluted to get the following concentrations: 210, 70, 21, 7, 2.1, 0.7, 0.21, 0.07, 0.021, 0.007, 0.0021 and 0.0007 μM (i.e., final concentrations in the wells of 30, 10, 3, 1, 0.3, 0.1, 0.03, 0.01, 0.003, 0.001, 0.0003, 0.0001 μM).
Assays were run in clear flat bottom 96-well plates (Nunclon, Cat. No. #167008) adding in each well the following solutions in this order: (1) 10 μl of Tris-HCl solution supplemented with 0.1% bovine serum albumin (BSA) containing 1.563 μg/ml recombinant human ARG1 (R&D System, Cat. No. #5868-AR-010), (2) 30 μl of Tris-HCl buffer containing 10 mM MnCl2 and (3) 10 μL of a pre-dilution of each test article or DMSO (vehicle). Compounds were allowed to interact with the enzyme-cofactor complex pre-incubating the plate at 37° C. for 30 min. To start the reaction, 20 μl of 50 mM L-arginine (Sigma Aldrich Cat. #A5006-100G) were added to each well in exception of the blank reaction (see below). All reactions were allowed to happen for 1 h at 37° C. To detect the urea production, reactions were stopped by adding 200 μl of a mixture of reagent A (4 mM o-phthalaldehyde in 50 mM Boric Acid, 1 M Sulfuric Acid, 0.03% Brij-35 (w/v)) and reagent B (4 mM N-(1-naphthyl)ethylenediamine in 50 mM Boric Acid, 1 M Sulfuric Acid, 0.03% Brij-35 (w/v)) in equal proportion. Color product was developed for 1 h at room temperature (RT) protected from light and then absorbance at 520 nm was measured using a Multifunction Microplate Reader (Synergy 4, Bioteck). Blank reactions were carried out by adding the L-arginine substrate only after the addition of mixture A-B. All reactions were carried out in duplicates.
The inhibition of urea production was calculated subtracting the absorbance from the blank reaction (zero enzymatic urea production) to the absorbance from all reactions and it was expressed as the percentage of the absorbance from the reaction containing the test article with respect to the absorbance from vehicle reaction (maximum of urea production).
For testing inhibitory activity over RBC lysates from healthy donors, 10 μl of Tris-HCl solution supplemented with 0.1% BSA containing 160 μg RBC lysates per well was used instead.

The values that follow come from patent publication US20220017541A1, “INHIBITORS OF ARGINASE” (Black Belt Tx Ltd, priority 2018, published 2022).

As a reminder, the IC50 is the concentration at which inhibition is half-maximal. Take `NC(CCCCB(O)O)(C(=O)O)C1CCN(C2CCc3ccccc32)CC1` (single isomer, unassigned) [Compound 2, 2-amino-6-borono-2-(1-(2,3-dihydro-1H-inden-1-yl)piperidin-4-yl)hexanoic acid]: in data set [1], the “Plasma concentration PO @ t = 30 min” value is “+ (plasma concentration < 500 nM)”. For the same molecule, the concentration for half-maximal inhibition (IC50) in data set [2] was less than 500 nM.

With `NC(CCCCB(O)O)(C(=O)O)C1CCN(C2CCc3ccccc32)CC1` (single isomer, unassigned) [Compound 3, 2-amino-6-borono-2-(1-(2,3-dihydro-1H-inden-1-yl)piperidin-4-yl)hexanoic acid], the half-inhibitory concentration (IC50) in data set [2] is greater than 5000 nM.

Take `NC(CCCCB(O)O)(C(=O)O)C1CCN(C2CCCc3ccccc32)CC1` (single isomer, unassigned) [Compound 4, 2-amino-6-borono-2-(1-(1,2,3,4-tetrahydronaphthalen-1-yl)piperidin-4-yl)hexanoic acid]: the IC50 in data set [2] is less than 500 nM.

For the molecule `NC(CCCCB(O)O)(C(=O)O)C1CCN(C2CCCc3ccccc32)CC1` (single isomer, unassigned) [Compound 5, 2-amino-6-borono-2-(1-(1,2,3,4-tetrahydronaphthalen-1-yl)piperidin-4-yl)hexanoic acid], in data set [1], the “Plasma concentration 2 mg/Kg IV @ t = 30 min” value is on record as “++ (plasma concentration > 1000 nM for test compound)” and the “Plasma concentration PO @ t = 30 min” value is recorded as “+ (plasma concentration < 500 nM)”. Further, in data set [2], the IC50 is less than 500 nM.

Turning to `NC(CCCCB(O)O)(C(=O)O)C1CCN(C2CCCc3ccccc32)CC1` (single isomer, unassigned) [Compound 6, 2-amino-6-borono-2-(1-(1,2,3,4-tetrahydronaphthalen-1-yl)piperidin-4-yl)hexanoic acid], in data set [2], the IC50 was greater than 5000 nM.

Consider `CC(c1ccccc1)N1CCC(C(N)(CCCCB(O)O)C(=O)O)CC1` (single isomer, unassigned) [Compound 10, 2-amino-6-borono-2-(1-(1-phenylethyl)piperidin-4-yl)hexanoic acid], for which, in data set [1], the “Plasma concentration 2 mg/Kg IV @ t = 30 min” value was “+ (plasma concentration < 500 nM)” and the “Plasma concentration PO @ t = 30 min” value is recorded as “+ (plasma concentration < 500 nM)”. In addition, the IC50 in data set [2] was less than 500 nM.

As for `CC(c1ccccc1)N1CCC(C(N)(CCCCB(O)O)C(=O)O)CC1` (single isomer, unassigned) [Compound 11, 2-amino-6-borono-2-(1-(1-phenylethyl)piperidin-4-yl)hexanoic acid], in data set [2], the half-inhibitory concentration (IC50) is greater than 5000 nM.

Take `NC(CCCCB(O)O)(C(=O)O)C1CCN(C2CCc3cc(Cl)ccc32)CC1` (single isomer, unassigned) [Compound 14, 2-amino-6-borono-2-[1-(5-chloroindan-1-yl)-4-piperidyl]hexanoic acid]: the 50% inhibitory concentration (IC50) in data set [2] is less than 500 nM.

In the case of `NC(CCCCB(O)O)(C(=O)O)C1CCN(C2CCCc3cc(Cl)ccc32)CC1` (single isomer, unassigned) [Compound 17, 2-amino-6-borono-2-(1-(6-chloro-1,2,3,4-tetrahydronaphthalen-1-yl)piperidin-4-yl)hexanoic acid], the IC50 in data set [2] was less than 500 nM.

Regarding `CNC(CCCCB(O)O)(C(=O)O)C1CCN(C2CCCc3ccccc32)CC1` (single isomer, unassigned) [Compound 79, 6-borono-2-(methylamino)-2-(1-(1,2,3,4-tetrahydronaphthalen-1-yl)piperidin-4-yl)hexanoic acid], the IC50 in data set [2] is less than 500 nM.

For the molecule `NC(CCCCB(O)O)(C(=O)O)C1CCN(C2CCCc3ccc(F)cc32)CC1` (single isomer, unassigned) [Compound 83, 2-amino-6-borono-2-(1-(7-fluoro-1,2,3,4-tetrahydronaphthalen-1-yl)piperidin-4-yl)hexanoic acid], the “Plasma concentration PO @ t = 30 min” value in data set [1] is given as “+ (plasma concentration < 500 nM)”. Besides, in data set [2], the IC50 was less than 500 nM.

For `NC(CCCCB(O)O)(C(=O)O)C1CCN(C2CCCCc3ccccc32)CC1` (single isomer, unassigned) [Compound 84, 2-amino-6-borono-2-(1-(6,7,8,9-tetrahydro-5H-benzo[7]annulen-5-yl)piperidin-4-yl)hexanoic acid], the IC50 in data set [2] was less than 500 nM.

For `NC(CCCCB(O)O)(C(=O)O)C1CCN(C2CCc3cc(C(F)(F)F)ccc32)CC1` (single isomer, unassigned) [Compound 85, 2-amino-6-borono-2-[1-[5-(trifluoromethyl)indan-1-yl]-4-piperidyl]hexanoic acid], the 50% inhibitory concentration (IC50) in data set [2] was less than 500 nM.

On to `NC(CCCCB(O)O)(C(=O)O)C1CCN(C2CCc3ccccc32)CC1` (stereo not shown) [Compound 1, 2-amino-6-borono-2-(1-(2,3-dihydro-1H-inden-1-yl)piperidin-4-yl)hexanoic acid], for which the IC50 in data set [2] was less than 500 nM.

On to `CC(c1ccccc1)N1CCC(C(N)(CCCCB(O)O)C(=O)O)CC1` (stereo not shown) [Compound 9, 2-amino-6-borono-2-(1-(1-phenylethyl)piperidin-4-yl)hexanoic acid], for which the IC50 in data set [2] was less than 500 nM.

Turning to `CC1(C)OB(CCCCC(N)(C(=O)O)C2CCN(C3CCCc4ccccc43)CC2)OC1(C)C` (stereo not shown) [Compound 77, 2-amino-2-(1-(1,2,3,4-tetrahydronaphthalen-1-yl)piperidin-4-yl)-6-(4,4,5,5-tetramethyl-1,3,2-dioxaborolan-2-yl)hexanoic acid], in data set [2], the IC50 was less than 500 nM.
